Earlier results on one molecule are cited in publication PMC9190099, “Menthol carbonates as potent antiparasitic agents: synthesis and in vitro studies along with computer-aided approaches” (BMC Complementary Medicine and Therapies, 2022).

Structures are written as SMILES.

Data set [1] concerns Leishmania amazonensis promastigotes. Also on record: method as in earlier work. Particulars: ref 53 (Silva et al. 2017), read-out: EC50 against Leishmania amazonensis promastigotes; cited from earlier work.
Data set [2] deals with L. branziliensis. Also noted: method as in PMID 28509873. As to conditions: previous studies; read-out: EC50 reported for L. branziliensis; cited from earlier work.

`C=CCc1ccc(O)c(OC)c1` [eugenol]: the 50% effective concentration (EC50) in data set [1] is 505 µM; in data set [2] it was 60.4 µM.

One may read the EC50 as the concentration that produces a half-maximal response.
